Measured values taken from US20240308998A1, “PYRROLOPYRIDONE DERIVATIVES USEFUL IN THE TREATMENT OF CANCER” (Tay Therapeutics Limited, priority 2021, published 2024).

Assays:
[1] = Mouse plasma stability; type: in vitro ADME; conditions: 10 μM in mouse plasma, 37° C.
Experimental: The stock solution of compound (10 or 50 mM) was prepared in DMSO. From the stock solution, a working solution of compound (500 uM) was prepared in DMSO (100%). To 735 μL of mouse plasma, 15 μL of working solution of compound was added—resulting in a final concentration of 10 μM (2% DMSO) for the compound. The sample was then incubated at 37° C. Aliquot was withdrawn at time-points—0, 15, 30, 60, 90 and 120 mins. The reaction was stopped by using chilled acetonitrile containing internal standard (IS). The samples were centrifuged and the supernatants analyzed using LC-MS/MS. The percent remaining of the compound at each time point was calculated with respect to the control sample (0 min time-point).

[2] = target: T1, BRD4 BD2 (Homo sapiens, UniProt O60885); assay: NanoBRET bromodomain assay, BRD4 BD2; type: cell-based
T1 construct: HEK293 cells were transfected using NanoLuc-BRD4-BD1 or NanoLuc-BRD4-BD2 fusion vectors; host or cells: HEK293
Method in brief: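 HEK293 cells transfected with NanoLuc-BRD4-BD2 fusion for 20-24 h, then treated with compound plus 1x tracer for 2 h at 37° C. Donor 450 nm / acceptor 610 nm emissions converted to background-corrected mBU; IC50 by nonlinear regression; selectivity as IC50 BD1/IC50 BD2.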

[3] = Intrinsic clearance in mouse liver microsomes; type: in vitro ADME; conditions: 1 uM, NADPH
Experimental: A 50 mM stock solution (in DMSO) was prepared for the compound. From the stock solution, a working solution of 0.5 mM was prepared by diluting the compound in DMSO. This concentration of working solution was prepared considering a final concentration of 1 uM with 0.1% DMSO. The compound (1 uL of working solution) was spiked in PBS with pH 7.4 (22 uL) at a concentration of 1 uM. Subsequently, 110 uL of 10 mM NADPH was added (as a co-factor). The sample was incubated at 37° C. for 15 min. Following this, pre-warmed mouse liver microsomes (27.5 uL; final protein conc. 0.5 mg/mL) were added. The samples were then incubated at 37° C. Aliquots of samples were withdrawn at 0, 5, 15, 30, 45 and 60 min. The reaction was stopped by using chilled acetonitrile containing internal standard. The samples were centrifuged and the supernatants analysed by LC-MS/MS. The percent compound remaining at each time point was calculated with respect to that of the 0 min sample. The data were then analysed to calculate half-life and intrinsic clearance (CLint). Note that control samples were run without NADPH and blank samples were prepared using DMSO without the test compound.

[4] = target: T2, BRD4 BD1 (Homo sapiens, UniProt O60885); assay: NanoBRET bromodomain assay, BRD4 BD1; type: cell-based; conditions: HEK293 cells transfected with NanoLuc-BRD4-BD1
T2 construct: HEK293 cells were transfected using NanoLuc-BRD4-BD1 or NanoLuc-BRD4-BD2 fusion vectors; host or cells: HEK293
Method in brief: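 Transfected HEK293 cells expressing NanoLuc-BRD4-BD1 were incubated with 1x tracer and serially diluted compound for 2 h at 37 °C, then given Nano-Glo substrate plus extracellular NanoLuc inhibitor. Donor 450 nm and acceptor 610 nm emissions were converted to background-corrected mBU, and IC50 was derived by nonlinear regression.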

In the case of `Cc1cccc(C)c1Oc1cn(C)c(=O)cc1-c1cn(C)c(=O)c2[nH]c(-c3ncc[nH]3)cc12` [Example 2, 4-(5-(2,6-dimethylphenoxy)-1-methyl-2-oxo-1,2-dihydropyridin-4-yl)-2-(1H-imidazol-2-yl)-6-methyl-1,6-dihydro-7H-pyrrolo [2,3-c] pyridin-7-one], the “Mouse Plasma Stability % remaining at 120 minutes” value [1] is reported as 100%, the “Fold selectivity BRD4 BD1/BD2” value ([2]; IC50 BD1/IC50 BD2) is reported as “xx (Fold >50 and ≤200)” and the IC50 ([2]; NanoBRET, HEK293 cells transfected with NanoLuc-BRD4-BD2) is reported as at most 50 nM. For the same molecule, the “Mouse Microsomal Stability (intrinsic clearance)” value [3] was 0.9 ml/min/g liver and the IC50 [4] was over 1000 nM.
